“Also recorded” adds a separate entry of the source.
Legend:
SHIP1 = target: T1, SHIP1 (Mus musculus, UniProt Q9ES52); assay: Fluorescence polarization (FP) assay of SHIP1 enzymatic activity; assay type: biochemical; details: 0.1 μg of recombinant SHIP1, FP assay
T1 construct: The asterisk in lanes 1 and 3 indicates the ˜145 kD full-length SHIP protein; His tag (C); made in house; host or cells: E. coli Rosetta-Gami 2 (DE3) pLys
T1 sequence (Q9ES52 1-1191): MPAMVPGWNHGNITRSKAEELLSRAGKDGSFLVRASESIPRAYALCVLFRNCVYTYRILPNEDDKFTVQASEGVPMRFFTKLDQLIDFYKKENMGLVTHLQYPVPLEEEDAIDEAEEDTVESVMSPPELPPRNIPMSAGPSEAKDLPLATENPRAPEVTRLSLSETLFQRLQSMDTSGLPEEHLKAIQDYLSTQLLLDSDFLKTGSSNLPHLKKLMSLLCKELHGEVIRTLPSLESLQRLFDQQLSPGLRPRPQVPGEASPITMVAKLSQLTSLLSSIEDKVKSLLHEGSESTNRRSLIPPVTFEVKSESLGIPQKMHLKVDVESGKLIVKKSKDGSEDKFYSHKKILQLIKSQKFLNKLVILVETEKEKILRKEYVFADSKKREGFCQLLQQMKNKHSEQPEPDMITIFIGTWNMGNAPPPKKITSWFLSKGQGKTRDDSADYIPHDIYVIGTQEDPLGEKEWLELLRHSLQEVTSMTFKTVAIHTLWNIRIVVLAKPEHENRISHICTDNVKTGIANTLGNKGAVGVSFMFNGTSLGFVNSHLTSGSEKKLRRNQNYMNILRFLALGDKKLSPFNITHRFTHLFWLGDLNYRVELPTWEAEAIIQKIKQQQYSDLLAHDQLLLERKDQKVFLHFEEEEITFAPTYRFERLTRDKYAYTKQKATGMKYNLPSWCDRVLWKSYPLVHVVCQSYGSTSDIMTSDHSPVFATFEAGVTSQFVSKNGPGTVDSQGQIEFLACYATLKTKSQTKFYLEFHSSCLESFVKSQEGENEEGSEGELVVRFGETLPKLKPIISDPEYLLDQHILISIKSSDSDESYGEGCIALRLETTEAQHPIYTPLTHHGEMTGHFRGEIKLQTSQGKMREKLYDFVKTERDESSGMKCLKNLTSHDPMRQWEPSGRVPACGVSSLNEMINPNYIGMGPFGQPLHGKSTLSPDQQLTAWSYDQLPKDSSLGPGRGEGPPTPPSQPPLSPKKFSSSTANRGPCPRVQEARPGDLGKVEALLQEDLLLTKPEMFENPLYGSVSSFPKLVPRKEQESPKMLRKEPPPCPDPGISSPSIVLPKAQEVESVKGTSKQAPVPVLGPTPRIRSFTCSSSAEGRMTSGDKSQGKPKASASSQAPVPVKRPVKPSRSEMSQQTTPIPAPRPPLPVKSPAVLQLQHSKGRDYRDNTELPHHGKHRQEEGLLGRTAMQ

[1] = test system: priming of allogeneic T cell responses by C57Bl6/J splenocytes; assay: One-way mixed leukocyte reaction (MLR), stimulator splenocytes treated in vitro; assay type: cell-based, mouse; details: splenocytes cultured with compound 72 hr, added at 0, 24 and 48 hr
Experimental: Mean proliferation of 100K BALB/C responders as measured by ^3H-Thymidine uptake after exposure to 200K irradiated BL6 stimulators that were treated with the indicated compound, 1×DMSO or 1× EtOH prior to initiation of the mixed leukocyte reaction (MLR). 1×DMSO serves as the allogeneic MLR positive control for all compounds with the exception of HLM85321 for which 1× EtOH is the positive control. [*p<0.05, **p<0.01].
Spleen cells and lymphe node LN cells are normally robust stimulators of allogeneic T cell responses in the one-way mixed leukocyte reaction (MLR) assay, but they are very poor stimulators when obtained from mice with germline or induced SHIP-deficiency. […]
Mixed leukocyte reactions (MLR): Following RBC lysis, irradiated (2000 Rads) BL6 splenocytes (stimulators) at 8×10^5 cells/well were combined with BALB/c splenocytes (responders) at 4×10^5 cells/well in a one-way MLR assay. […] Incorporated [3H]thymidine was quantitated using a Packard TopCount NXT. Specific [3H]thymidine incorporation into genomic DNA was calculated as the average of the mean (±SEM) of sextuplicate wells. […]

Compound | inhibition at 10 µM (SHIP1) [%] | ability of splenocytes to prime allogeneic T cell responses by BALB/C responders (3H-thymidine uptake) [1]
CC(C)CCC[C@@H](C)[C@H]1CC[C@H]2[C@@H]3CC[C@H]4C[C@H](N)CC[C@]4(C)[C@H]3CC[C@]12C [NSC23922, (3R,5S,8R,9S,10S,13R,14S,17R)-10,13-dimethyl-17-[(2R)-6-methylheptan-2-yl]-2,3,4,5,6,7,8,9,11,12,14,15,16,17-tetradecahydro-1H-cyclopenta[a]phenanthren-3-amine] | 50 | 
OC(c1cc(-c2ccccc2)nc2c1ccc1ccccc12)C1CCCCN1 (centres unmarked) [NSC13480, (2-phenylbenzo[h]quinolin-4-yl)-piperidin-2-ylmethanol] |  | significantly inhibited; also recorded: complete inability to prime allogeneic T cell responses

— patent US9006221B2, “Method of modulating ship activity” (H. Lee Moffitt Cancer Center and Reserach Institute, Inc., priority 2008, dated 2015)
